# Earlier results as cited in US20090175803A1 (priority 2008, published 2009).
# Experiments:
# [1] = peroxyl-radical scavenging
# [2] = tested on: carcinogen-induced preneoplastic lesions; settings: mouse mammary organ culture
# PPARA = target: T1, PPARA (Homo sapiens, UniProt Q07869)
# T1 sequence (Q07869 1-468): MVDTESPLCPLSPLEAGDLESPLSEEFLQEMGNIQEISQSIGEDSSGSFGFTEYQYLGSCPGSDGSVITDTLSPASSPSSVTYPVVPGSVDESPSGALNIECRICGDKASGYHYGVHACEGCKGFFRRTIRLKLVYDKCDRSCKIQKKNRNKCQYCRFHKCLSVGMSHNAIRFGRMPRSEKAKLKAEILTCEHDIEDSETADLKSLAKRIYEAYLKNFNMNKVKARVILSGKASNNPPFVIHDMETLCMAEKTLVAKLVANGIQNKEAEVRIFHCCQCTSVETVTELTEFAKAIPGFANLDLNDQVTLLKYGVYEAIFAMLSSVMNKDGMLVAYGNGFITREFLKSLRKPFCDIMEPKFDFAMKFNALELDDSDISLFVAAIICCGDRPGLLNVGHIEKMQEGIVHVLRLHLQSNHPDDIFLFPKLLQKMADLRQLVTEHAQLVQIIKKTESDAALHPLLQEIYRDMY
# [3] = tested on: PGE2 production from LPS-stimulated human peripheral blood mononuclear cells; settings: LPS-stimulated human PBMC
smiles,measurement,setting,value
"COc1cc(/C=C/c2ccc(O)cc2)cc(OC)c1 [Pterostilbene, 4-[(E)-2-(3,5-dimethoxyphenyl)ethenyl]phenol]",total reactive antioxidant potential,[1],237 ± 58 µM
same,inhibition of carcinogen-induced preneoplastic lesions,[2],significant inhibition
same,PPARA agonism,PPARA,acts as a PPARA agonist
same,blood glucose,animal studies,can lower blood glucose
same,lipid and glucose lowering effects,in vivo studies,possesses lipid and glucose lowering effects
same,PGE2 production,[3],inhibited PGE2 production
same,cell proliferation and apoptosis,human gastric cancer,inhibit cell proliferation and induce apopotosis in a concentration- and time-dependent manner
